Measured values: patent US12303508B2, “Combinatory treatment strategies of cancer based on RNA polymerase I inhibition” (THE JOHNS HOPKINS UNIVERSITY, priority 2016, dated 2025)

Tests used:
[1] = system: MR49F enzalutamide-resistant prostate cancer cells; assay: Cell viability (CellTiter-Blue) with Chou-Talalay combination index, MR49F; assay type: cell-based; details: in combination with BMH-21, constant concentrations, 48 h, CI<1 synergism
Procedure: (§1) Cell viability was measured using Cell TiterBlue, and Chou-Talalay Combination Index analysis was performed. CI<1 denotes synergism. Effect denotes the combinatory drug activity where 1 represents 100% kill.
(§2) Cells were maintained at 37° C. in a humidified atmosphere containing 5% CO2. […] Effect denotes the combinatory drug activity where 1 represents 100% kill.

[2] = system: LNCaP prostate cancer cells; assay: Cell viability (CellTiter-Blue) with Chou-Talalay combination index, LNCaP; assay type: cell-based; details: in combination with BMH-21, LNCaP cells, 48 h
Procedure: Cell viability was measured using Cell TiterBlue, and the mean of triplicate samples is shown. (B) Chou-Talalay combination index (CI) analysis was used to determine the drug interactions (blue curve). CI<1 denotes synergism. Red bar, C=1 additive effect. Fraction dead cells denotes the combinatory drug activity where 1 represents 100% kill.
(§3) Cells and Viability Assay. A375 melanoma and LNCaP prostate cancer cells were from American Type Culture Collection. HCT116 p53+/+ and −/− cells were from Dr. F. Bunz. MR49F cells were from Dr. M. Gleave. Cells were maintained at 37° C. in a humidified atmosphere containing 5% CO2. Cells were plated in 96-well plates at a density of 3,000 cells/well in triplicate and incubated for 48 h with the compounds. Viability was determined using CellTiter-Blue Cell Viability Assay (Promega) according to manufacturer's instructions. Chou-Talaley algorithm (Compusyn) was used to define the combination index (CI) where CI<1 denotes synergism, CI>1 denotes antagonism and CI=1 is additive. Effect denotes the combinatory drug activity where 1 represents 100% kill.

LNCaP cells = assay: Cleaved caspase-3 and DNA staining, LNCaP; assay type: cell-based; details: for massive apoptotic response, single treatment: either treatment alone
Excerpt: (§4) The inset bars represent sub-G1 cells. (B) The percentage of sub-G1 cells from A is plotted over time. (C) Staining of the cells for the apoptosis marker caspase-3. Immunofluorescence and Epifluorescence Microscopy. Cells grown on coverslips were fixed in 3.5% paraformaldehyde, permeabilized with 0.5% NP-40 and blocked with 3% BSA. Cells were stained for LC3-II and cleaved caspase-3 (Cell Signaling). Alexa 488-conjugated secondary antibodies were from Invitrogen. DNA was counterstained with DAPI (Invitrogen). Images were captured using Axioplan2 fluorescence microscope (Zeiss) equipped with AxioCam HRc CCD-camera and AxioVision 4.5 software using EC Plan-Neofluar 20× or 40× objectives (Zeiss).

MR49F cells = assay: Cleaved caspase-3 and DNA staining, MR49F; assay type: cell-based; details: for massive apoptotic response, single treatment: either treatment alone
Excerpt: as §4

[3] = system: A375 human melanoma cells; assay: Cell viability (CellTiter-Blue) with Chou-Talalay combination index, A375; assay type: cell-based; details: in combination with BMH-21, constant concentrations, 48 h, CI<1 synergism, CI>1 antagonism
Procedure: as §2

[4] = system: HCT116 p53+/+ colon carcinoma cells; assay: Cell viability (CellTiter-Blue) with Chou-Talalay combination index, HCT116 p53+/+; assay type: cell-based; details: in combination with BMH-21, HCT116 p53+/+ cells, 48 h
Procedure: (§5) Data represent N=2 biological assays each conducted in triplicate. […] Chou-Talalay plots are shown. Data represents N=2 biological assays each conducted in triplicate.
as §3
(§6) The inventors tested these combinations in three different cell lines (A375 melanoma cells, HCT116 p53+/+ and HCT116 p53−/− colon carcinoma cells).

[5] = system: HCT116 p53−/− colon carcinoma cells; assay: Cell viability (CellTiter-Blue) with Chou-Talalay combination index, HCT116 p53-/-; assay type: cell-based; details: in combination with BMH-21, HCT116 p53−/− cells, 48 h
Procedure: as §5, §3, §6

RPA194 = details: previously demonstrated; cited from earlier work
NCI60 cancer cell lines = details: previously demonstrated; cited from earlier work
tumor xenograft = details: previously demonstrated; cited from earlier work
LC3-II in MR49F cells = assay: LC3-II western blotting and immunofluorescence staining; assay type: cell-based; details: 24 h
Procedure: as §1
as §4, with “Immunofluorescence” for “The inset bars represent sub-G1 cells. (B) The percentage of sub-G1 cells from A is plotted over time. (C) Staining of the cells for the apoptosis marker caspase-3. Immunofluorescence”
Immunoblotting. Cells were lysed in 0.5% NP-40 buffer (25 mM Tris-HCl, pH 8.0, 120 mM NaCl, 0.5% NP-40, 4 mM NaF, 100 μM Na3VO4, 100 KIU/ml aprotinin, 10 μg/ml leupeptin) or RIPA lysis buffer. Proteins were separated on SDS-PAGE, blotted, probed for respective proteins and detected using ECL (Amersham). The primary antibodies used for detection were LC3-II and cleaved caspase-3 (Cell Signaling). HRP-conjugated secondary antibodies were from DAKO or Santa Cruz Biotechnology.

[6] = BMH-21 plus Avasimibe combination

| Compound | drug interaction with BMH-21 (Chou-Talalay combination index on cell viability) [1] | massive apoptotic response, single treatment (LNCaP cells) | massive apoptotic response, single treatment (MR49F cells) | drug interaction with BMH-21 (Chou-Talalay combination index on cell viability) [3] | drug interaction with BMH-21 (Chou-Talalay combination index on cell viability) [4] | drug interaction with BMH-21 (Chou-Talalay combination index on cell viability) [5] | other results |
| --- | --- | --- | --- | --- | --- | --- | --- |
| CC(C)c1cc(C(C)C)c(CC(=O)NS(=O)(=O)Oc2c(C(C)C)cccc2C(C)C)c(C(C)C)c1 [Avasimibe] | prominent synergistic activities | not observed | not observed | – | – | – | drug interaction with BMH-21 (cell viability, Chou-Talalay combination index) [2]: synergistic cancer cell death; apoptosis by cleaved caspase-3 and DNA staining, combination (LNCaP cells; [6]): prominent cell apoptosis; apoptosis by cleaved caspase-3 and DNA staining, combination (MR49F cells; [6]): prominent cell apoptosis |
| O=C(c1cc(Cc2n[nH]c(=O)c3ccccc23)ccc1F)N1CCN(C(=O)C2CC2)CC1 [olaparib, 4-[[3-[4-(cyclopropanecarbonyl)piperazine-1-carbonyl]-4-fluorophenyl]methyl]-2H-phthalazin-1-one] | – | – | – | synergistically | synergistically | synergistically | – |
| CN(C)CCNC(=O)c1cccn2c(=O)c3cc4ccccc4cc3nc12 [BMH-21, 12H-Benzo[g]pyrido[2,1-b]quinazoline-4-carboxamide, N-[2(dimethylamino)ethyl]-12-oxo] | – | not observed | not observed | – | – | – | degradation of RPA194 (RPA194): causes proteasome-mediated degradation of RPA194; anticancer activity in NCI60 cancer cell lines (NCI60 cancer cell lines): broad and potent anticancer activity; tumor burden in mouse xenograft assays (tumor xenograft): reduced tumor burden |
| CCN(CC)CCCC(C)Nc1ccnc2cc(Cl)ccc12 (centres unmarked) [chloroquine] | – | – | – | – | – | – | number of LC3-II puncta (LC3-II in MR49F cells; co-treatment with BMH-21 (1 μM)): significant increase; expression of LC3-II (marker for autophagy inhibition) (LC3-II in MR49F cells; combination with BMH-21 (1 μM), western blotting and immunofluorescence): increased |
| Bafilomycin | synergistic cell death | – | – | – | – | – | – |
| Cn1ncnc1[C@H]1c2n[nH]c(=O)c3cc(F)cc(c23)N[C@@H]1c1ccc(F)cc1 [BMN-673] | – | – | – | synergistically | synergistically | synergistically | – |
